Assay [1] relates to mesenchymal A549 spheroids. The experiment in a line: Intracellular doxorubicin accumulation and viability in spheroids. The class given is cell-based, Human. As to conditions: FIG. 9. How it is done:
FIG. 9. T12 enhances intracellular accumulation of doxorubicin in A549 mesenchymal spheroids. A549 spheroids were subjected to EMT induction with TGF-β and TNF-α during 4 days, and treated with T12 (10 μM) or maintained untreated (Placebo) for the last 2 days. Three hours before spheroid analysis doxorubicin (1 μM) was added. Spheroids were fixed and analyzed by immunofluorescence confocal microscopy with anti-α1α2(IV) antibodies for collagen IV network visualization (grey). Doxorubicin was detected by its own auto-fluorescence. […] Three-dimensional spheroid cultures of A549 cells were obtained using a hanging droplet method (Kelm et al., 2003. Biotechnol. Bioeng. 83: 173-180.; Kumar et al., 2013. PLoS One. 8: e68597). Briefly, cells were grown to approximately 80% confluence on adherent tissue-culture flasks. Then cells were trypsinized, dispersed in DMEM/10% FBS, and counted using an automated cell counter (MOXI® Z, Orflo). The cell suspension was diluted to a 10^6 cells/mL-concentration, and 25 μl of the cell suspension were pipetted onto the underside of a sterile 10-cm tissue culture plate lid. Each lid was loaded with approximately 55 droplets. After loading, the lid was placed onto a tissue culture plate containing 6 mL of sterile PBS (phosphate-buffered saline) and incubated for 48 hours to facilitate spheroid formation. […]

The next assay relates to 4T1 cells. The assay can be described thus: Cell death / caspase 3 activation in 4T1 cells. The class given is cell-based, Mouse. As to conditions: same T12 concentrations as for circulating 4T1 cells; FIG. 11D-E. The procedure: FIG. 11. T12 targets circulating 4T1 cancer cells. A, Balb/c female mice were inoculated with 4T1 mouse breast cancer cells at mammary fat pads. At day 20 after cell inoculation mice were subjected to PET analysis for metastases detection. White arrows denote metastatic foci at the spinal cord. B, Balb/c female from A were either left untreated (Control), or were treated with T12 in drinking water from day 20. At day 35 blood was seeded in the presence of 6-thioguanine and circulating 4T1 cells selected and further cultured. Shown are phase contrast images of the resulting cultures acquired with an inverted microscope. […] C, circulating 4T1 cells recovered as in B and 4T1 cells were cultured in standard 2D cultures and subjected to RNA extraction, and RNA samples were analyzed by RT-qPCR. Shown are the relative quantities (RQ) of the indicated mRNAs of circulating 4T1 cells using levels from 4T1 cells as reference. […] Dead cells in culture media were quantified by measuring cell size using an automated cell counter (Moxi Z, Orflo). […] E, circulating 4T1 cells recovered as in B or 4T1 cells were cultured in ultra-low binding plates and treated with the indicated concentrations of T12 for 9 days, cells were lysed and analyzed by Western blot using antibodies specific for activated caspase 3. The levels of GAPDH were determined for loading control purposes. […]

“Also recorded” adds a separate entry of the source.

On to `COc1ccc(-c2ccc(-c3cccc(C)c3)c(C)c2)c(CCC(=O)O)c1` [T12, 3-[4″-methoxy-3,2′-dimethyl-(1,1′;4′,1″)terphenyl-2″-yl] propionic acid], for which, in assay [1] (T12 10 μM last 2 days, doxorubicin 1 μM 3 h before analysis), the “intracellular accumulation of doxorubicin (nuclei containing doxorubicin)” value is “accumulating doxorubicin inside the cells; also recorded: more abundant in spheroids treated with doxorubicin and T12 than in spheroids treated only with doxorubicin”. In assay [1] (T12 10 μM plus doxorubicin 1 μM), the “viability of spheroids with doxorubicin” value is listed as “sharply reduced the viability”. Besides, the “sensitivity to T12: dead cells and activated caspase 3” value with 4T1 cells was “little effect on 4T1 cells”.

Source of the values: patent US20160184274A1, “Methods for inhibiting mesenchymal phenotype after epithelial-to-mesenchymal transition” (Fibrostatin, S.L., priority 2014, published 2016).
